Assays:
cruzain = molecular target: T1, cruzain (Trypanosoma cruzi, UniProt P25779); test: Cruzain inhibition assay (cleavage of fluorogenic substrate Z-Phe-Arg-AMC); format: biochemical; conditions: for inhibition at 100 µM: at 100 μM inhibitor, mean of three measurements, read-out: Percent inhibition against cruzain; for IC50: mean ± SD of three individual experiments, at least six inhibitor concentrations in triplicate, 1.5 nM cruzain, 5.0 μM Z-Phe-Arg-AMC, pH 5.5; for mechanism of inhibition: Lineweaver-Burk plots, eight substrate and four inhibitor concentrations; for decrease in potency against cruzain relative to 3a: less active than 3a
T1 construct: inferred from Ni-NTA purification of the pro-enzyme; made in house; host or cells: Escherichia coli (M15)
Experimental: The catalytic activity of cruzain was monitored by cleavage of the fluorogenic substrate Z-Phe-Arg-aminomethyl coumarin (Z-Phe-Arg-AMC) as previously described (Ferreira et al., [2014]). The enzyme kinetics assays were performed in 0.1 M sodium acetate buffer (pH 5.5) with 5 mM dithiothreitol (DTT) and 0.01% Triton X-100. […] The enzyme reaction was monitored for 5 min at 30°C in 96-well black flat bottom plates, and the activity was calculated based on the initial rates compared with a control (DMSO). Wavelengths of 355 nm for excitation and 460 nm for emission were used. IC50 values were independently determined by determining rate measurements for at least six inhibitor concentrations, each evaluated in triplicate. To determine the mechanism of inhibition, eight substrate concentrations and four inhibitor concentrations were used, each in triplicate. The mechanism of inhibition was determined by Lineweaver-Burk plots. SigmaPlot 10.0 (Systat Software Inc., Erkrath, Germany) was used to determine the IC50 values.

[1] = test system: T. cruzi intracellular amastigotes; test: T. cruzi intracellular amastigote assay (Tulahuen lacZ strain, CPRG readout); format: cell-based, Trypanosoma cruzi; conditions: intracellular amastigotes; for IC50: Trypanosoma cruzi, Tulahuen strain in HFF-1 fibroblasts, 120 h, mean ± SD of two experiments, read-out: IC50 T. cruzi
Experimental: In vitro assays against T. cruzi were performed as described previously (Ferreira et al., [2014]). The T. cruzi Tulahuen strain, which expresses the E. coli β-galactosidase gene lacZ (Buckner et al., [1996]), was provided by Frederick S. Buckner (University of Washington, Seattle, WA). Stock solutions of the synthesized compounds were prepared in 100% DMSO. Epimastigotes were grown in liver infusion tryptone (LIT) supplemented with 10% fetal calf serum (FCS), penicillin and streptomycin (28°C). Metacyclogenesis from epimastigotes to trypomastigotes was induced by incubation of the epimastigotes in Grace's insect medium (Sigma-Aldrich, St. Louis, MO) supplemented with 10% FCS (28°C). HFF-1 human fibroblasts were seeded at 2 × 10^3/well (80 μL) in 96-well tissue culture plates in RPMI 1640 without phenol red supplemented with 10% FCS and incubated overnight (37°C, 5% CO2). Next, trypomastigotes were added at 1.0 × 10^4/well (20 μL), and the plates were incubated (37°C, 5% CO2). After 24 h, 3-fold serial dilutions (50 μL) of the synthesized compounds were added at concentrations ranging from 0.1 to 100 μM, and the plates were incubated (37°C, 5% CO2). Each compound concentration was evaluated in triplicate. All plates included BZ (Sigma-Aldrich) as a positive control and untreated wells (100% growth) as a negative control. After 120 h, 50 μL of chlorophenol red β-D-galactopyranoside (CPRG, Sigma-Aldrich) and IGEPAL CA-630 (Sigma-Aldrich) (0.1%) was added to each well. The absorbance was measured at 570 nm in an automated microplate reader, and the data were transferred to SigmaPlot 10.0 (Systat Software Inc.) for IC50 value calculation.

[2] = Cytotoxicity in HepG2 cells (MTS tetrazolium assay); format: cell-based; conditions: human, HepG2 hepatocytes, mean ± SD of two independent assays
Experimental: (§1) The cytotoxicities of the compounds against HFF-1 fibroblasts and HepG2 hepatocytes were evaluated using the MTS tetrazolium assay (Promega, Madison, WI) (Barltrop et al., [1991]). HFF-1 fibroblasts were seeded at 2 × 10^3/well in 96-well culture plates in RPMI 1640 without phenol red supplemented with 10% FCS and incubated overnight (37°C, 5% CO2). HepG2 hepatocytes were seeded at 6 × 10^3/well in 96-well culture plates in DMEM (Cultilab, Campinas SP) supplemented with 10% FCS and incubated overnight (37°C, 5% CO2). The compounds were added in 3-fold serial dilutions, and the plates were incubated at 37°C with 5% CO2. Each compound concentration was evaluated in triplicate. All plates included doxorubicin (Sigma-Aldrich, St. Louis, MO) as a positive control and untreated wells (100% growth) as a negative control. After 72 h, 20 μL of MTS was added, and the plates were incubated for 4 h. The absorbance was measured at 490 nm in an automated microplate reader, and the data were transferred to SigmaPlot 10.0 (Systat Software Inc., Erkrath, Germany) for IC50 value calculation. The percent of nonviable cells was determined and compared to the negative control wells (100% growth).

[3] = Cytotoxicity in HFF-1 cells (MTS tetrazolium assay); format: cell-based; conditions: human, HFF-1 fibroblasts, mean ± SD of two independent assays
Experimental: as §1

T1 sequence (P25779 123-337 limits assumed): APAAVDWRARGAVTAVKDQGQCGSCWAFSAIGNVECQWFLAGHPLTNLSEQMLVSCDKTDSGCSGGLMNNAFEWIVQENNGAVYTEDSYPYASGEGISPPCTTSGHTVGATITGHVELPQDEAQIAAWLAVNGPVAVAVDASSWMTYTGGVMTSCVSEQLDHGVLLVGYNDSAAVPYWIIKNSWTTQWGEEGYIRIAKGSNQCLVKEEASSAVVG

Row | Compound | inhibition at 100 µM (cruzain) | IC50 (cruzain) | IC50 [1] | other results
1 | COc1ccc(NC(=O)COC(=O)[C@H](CC(C)C)N2C(=O)C3CC=CCC3C2=O)cc1Cl (stereo partly drawn) [3a, 2-((3-chloro-4-methoxyphenyl)amino)-2-oxoethyl (2S)-2-(1,3-dioxo-1,3,3a,4,7,7a-hexahydro-2H-isoindol-2-yl)-4-methylpentanoate] | 88% | 2.2 ± 0.4 µM | > 100 µM | activity against T. cruzi (in words) [1]: not active
2 | COc1ccc(NC(=O)COC(=O)[C@H](CC(C)C)N2C(=O)C3CC=CCC3C2=O)cc1 (stereo partly drawn) [3b, 2-((4-methoxyphenyl)amino)-2-oxoethyl (2S)-2-(1,3-dioxo-1,3,3a,4,7,7a-hexahydro-2H-isoindol-2-yl)-4-methylpentanoate] | 86% | 13.9 µM | – | –
3 | CC(C)C[C@@H](C(=O)OCC(=O)Nc1ccc2ccccc2c1)N1C(=O)C2CC=CCC2C1=O (stereo partly drawn) [3i, 2-(naphthalen-2-ylamino)-2-oxoethyl (2S)-2-(1,3-dioxo-1,3,3a,4,7,7a-hexahydro-2H-isoindol-2-yl)-4-methylpentanoate] | 79% | 2.1 ± 1.3 µM | 32.8 ± 4.9 µM | mechanism of inhibition (cruzain): competitive; CC50 at 72 h [2]: 45 ± 8 µM; CC50 at 72 h [3]: > 100000 nM
4 | COc1ccc(NC(=O)COC(=O)[C@H](CC(C)C)N2CCCC2)cc1Cl [10k, 2-((3-chloro-4-methoxyphenyl)amino)-2-oxoethyl (S)-4-methyl-2-(pyrrolidin-1-yl)pentanoate] | 6% | – | > 100 µM | activity against cruzain (in words) (cruzain): inactive; activity against T. cruzi (in words) [1]: inactive
5 | CC(C)C[C@@H](C(=O)OCC(=O)Nc1ccc(O)cc1)N1C(=O)C2CC=CCC2C1=O (stereo partly drawn) [3h, 2-((4-hydroxyphenyl)amino)-2-oxoethyl (2S)-2-(1,3-dioxo-1,3,3a,4,7,7a-hexahydro-2H-isoindol-2-yl)-4-methylpentanoate] | 6% | – | – | –
6 | CC(C)C[C@@H](C(=O)OCC(=O)Nc1ccc(F)cc1)N1C(=O)C2CC=CCC2C1=O (stereo partly drawn) [3e, 2-((4-fluorophenyl)amino)-2-oxoethyl (2S)-2-(1,3-dioxo-1,3,3a,4,7,7a-hexahydro-2H-isoindol-2-yl)-4-methylpentanoate] | 74% | 20.5 ± 1.3 µM | > 100 µM | –
7 | CC(C)C[C@@H](C(=O)OCC(=O)Nc1cccc(Cl)c1)N1C(=O)C2CC=CCC2C1=O (stereo partly drawn) [3c, 2-((3-chlorophenyl)amino)-2-oxoethyl (2S)-2-(1,3-dioxo-1,3,3a,4,7,7a-hexahydro-2H-isoindol-2-yl)-4-methylpentanoate] | 67% | 40.1 µM | – | –
8 | CC(C)C[C@@H](C(=O)OCC(=O)Nc1ccccc1)N1C(=O)C2CC=CCC2C1=O (stereo partly drawn) [3d, 2-oxo-2-(phenylamino)ethyl (2S)-2-(1,3-dioxo-1,3,3a,4,7,7a-hexahydro-2H-isoindol-2-yl)-4-methylpentanoate] | 76% | 16.7 ± 1.3 µM | > 100 µM | decrease in potency against cruzain relative to 3a (cruzain): 8 fold
9 | COc1ccc(NC(=O)COC(=O)[C@H](CC(C)C)N2C(=O)C3CCCCC3C2=O)cc1Cl (stereo partly drawn) [10b, 2-((3-chloro-4-methoxyphenyl)amino)-2-oxoethyl (2S)-2-(1,3-dioxooctahydro-2H-isoindol-2-yl)-4-methylpentanoate] | 75% | 4.2 ± 1.5 µM | > 100 µM | decrease in potency against cruzain relative to 3a (cruzain): 2 fold
10 | COc1ccc(NC(=O)COC(=O)[C@H](Cc2ccccc2)N2C(=O)C3CC=CCC3C2=O)cc1Cl (stereo partly drawn) [10h, 2-((3-chloro-4-methoxyphenyl)amino)-2-oxoethyl (2S)-2-(1,3-dioxo-1,3,3a,4,7,7a-hexahydro-2H-isoindol-2-yl)-3-phenylpropanoate] | 96% | 1.4 ± 0.8 µM | > 100 µM | activity against cruzain (in words) (cruzain): active; mechanism of inhibition (cruzain): competitive; increase in potency against cruzain relative to 3a (cruzain; more active than 3a): 2 fold; activity against T. cruzi (in words) [1]: inactive
11 | COc1ccc(NC(=O)CNC(=O)C(CC(C)C)N2C(=O)C3CC=CCC3C2=O)cc1Cl (centres unmarked) [compound 5, N-(2-((3-chloro-4-methoxyphenyl)amino)-2-oxoethyl)-2-(1,3-dioxo-1,3,3a,4,7,7a-hexahydro-2H-isoindol-2-yl)-4-methylpentanamide] | 38% | – | – | –
12 | COc1cccc2c1C(=O)c1c(O)c3c(c(O)c1C2=O)C[C@@](O)(C(=O)CO)C[C@@H]3O[C@H]1C[C@H](N)[C@H](O)[C@H](C)O1 [Doxorubicin, doxorubicin, reference compound] | – | – | – | CC50 at 72 h [2]: 0.4 ± 0.1 µM; CC50 at 72 h [3]: 210 ± 90 nM
13 | CC(C)C[C@@H](C(=O)OCC(=O)Nc1ccc(Cl)cc1)N1C(=O)C2CC=CCC2C1=O (stereo partly drawn) [3g, 2-((4-chlorophenyl)amino)-2-oxoethyl (2S)-2-(1,3-dioxo-1,3,3a,4,7,7a-hexahydro-2H-isoindol-2-yl)-4-methylpentanoate] | 56% | – | – | –
14 | COc1ccc(NC(=O)COC(=O)C(Cc2ccccc2)N2C(=O)C3CC=CCC3C2=O)cc1Cl (centres unmarked) [10hrac, 2-((3-chloro-4-methoxyphenyl)amino)-2-oxoethyl 2-(1,3-dioxo-1,3,3a,4,7,7a-hexahydro-2H-isoindol-2-yl)-3-phenylpropanoate] | – | 1.16 µM | – | –
15 | COc1ccc(NC(=O)COC(=O)[C@@H](Cc2ccc3ccccc3c2)N2C(=O)C3CC=CCC3C2=O)cc1Cl (stereo partly drawn) [10i, 2-((3-chloro-4-methoxyphenyl)amino)-2-oxoethyl (2R)-2-(1,3-dioxo-1,3,3a,4,7,7a-hexahydro-2H-isoindol-2-yl)-3-(naphthalen-2-yl)propanoate] | 58% | – | – | –
16 | CC(C)CC(C(=O)OCC(=O)Nc1ccc([N+](=O)[O-])cc1)N1C(=O)C2CC=CCC2C1=O (centres unmarked) [3l] | 67% | – | – | –
17 | COc1ccc(NC(=O)COC(=O)C(CC(C)C)N2C(=O)C3CC=CCC3C2=O)c([N+](=O)[O-])c1 (centres unmarked) [3m] | 53% | – | – | –
18 | CC(C)C[C@@H](C(=O)OCC(=O)Nc1ccc(Br)cc1)N1C(=O)C2CC=CCC2C1=O (stereo partly drawn) [3f, 2-((4-bromophenyl)amino)-2-oxoethyl (2S)-2-(1,3-dioxo-1,3,3a,4,7,7a-hexahydro-2H-isoindol-2-yl)-4-methylpentanoate] | 53% | – | – | –
19 | COc1ccc(NC(=O)COC(=O)CN2C(=O)C3CC=CCC3C2=O)cc1Cl (centres unmarked) [10g, 2-((3-chloro-4-methoxyphenyl)amino)-2-oxoethyl 2-(1,3-dioxo-1,3,3a,4,7,7a-hexahydro-2H-isoindol-2-yl)acetate] | 0% | – | – | activity against cruzain (in words) (cruzain): inactive
20 | COc1ccc(NC(=O)COC(=O)[C@H](CC(C)C)N2C(=O)c3ccccc3C2=O)cc1Cl [10a, 2-((3-chloro-4-methoxyphenyl)amino)-2-oxoethyl (S)-2-(1,3-dioxoisoindolin-2-yl)-4-methylpentanoate] | 39% | – | – | –
21 | CC(C)C[C@@H](C(=O)OCC(=O)Nc1ccc(F)c([N+](=O)[O-])c1)N1C(=O)C2CC=CCC2C1=O (stereo partly drawn) [3j, 2-((4-fluoro-3-nitrophenyl)amino)-2-oxoethyl (2S)-2-(1,3-dioxo-1,3,3a,4,7,7a-hexahydro-2H-isoindol-2-yl)-4-methylpentanoate] | 56% | – | – | –

Source: PMC6886403, “Structure-Based and Molecular Modeling Studies for the Discovery of Cyclic Imides as Reversible Cruzain Inhibitors With Potent Anti-Trypanosoma cruzi Activity” (Frontiers in Chemistry, 2019)
